In ChEMBL document CHEMBL5055650, “4-Acyl Pyrrole Capped HDAC Inhibitors: A New Scaffold for Hybrid Inhibitors of BET Proteins and Histone Deacetylases as Antileukemia Drug Leads” (J Med Chem, 2021):
Calls of active or inactive are those of the source. No cut-off for these calls is given here.

Tests used:
[1] = tested on: TALL-1; assay: Cytotoxicity against human TALL-1 cells assessed as cell viability at 5 uM by CellTiter-Glo luminescent assay; format: functional; conditions: read-out: Activity
[2] = tested on: MOLT-4; assay: Cytotoxicity against human MOLT-4 cells assessed as cell viability at 5 uM by CellTiter-Glo luminescent assay; format: functional; conditions: read-out: Activity
[3] = target: Histone deacetylase 1 (Homo sapiens, UniProt Q13547); assay: Inhibition of human recombinant HDAC1 assessed as fluorescence using fluorogenic substrate ZMAL incubated for 90 min by microplate reader
Sequence of Histone deacetylase 1 (Q13547 whole entry): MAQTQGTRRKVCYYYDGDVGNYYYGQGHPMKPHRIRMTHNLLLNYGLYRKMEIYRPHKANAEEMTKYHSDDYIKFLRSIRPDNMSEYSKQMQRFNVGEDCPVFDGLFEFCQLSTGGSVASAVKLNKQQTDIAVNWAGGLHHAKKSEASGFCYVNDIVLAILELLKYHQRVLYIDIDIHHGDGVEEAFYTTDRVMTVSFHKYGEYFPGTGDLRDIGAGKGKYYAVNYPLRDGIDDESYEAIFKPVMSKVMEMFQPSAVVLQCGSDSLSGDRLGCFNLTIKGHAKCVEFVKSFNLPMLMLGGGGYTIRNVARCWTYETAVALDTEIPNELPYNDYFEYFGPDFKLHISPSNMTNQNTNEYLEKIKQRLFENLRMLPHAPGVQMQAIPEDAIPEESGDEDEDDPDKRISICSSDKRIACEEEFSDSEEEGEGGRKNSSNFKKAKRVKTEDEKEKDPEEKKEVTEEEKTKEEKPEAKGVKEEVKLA

[4] = tested on: HPBALL; assay: Anticancer activity against human HPBALL cells assessed as reduction in total number of colony forming units at 5 uM measured after 24 hrs by colony formation assay; format: functional, cell-based
[5] = tested on: HPBALL; assay: Anticancer activity against human HPBALL cells assessed as reduction in size of colony at 5 uM measured after 24 hrs by colony formation assay; format: functional, cell-based
[6] = tested on: HL-60; assay: Cytotoxicity against human HL-60 cells assessed as cell viability at 5 uM by CellTiter-Glo luminescent assay; format: functional; conditions: read-out: Activity
[7] = target: T1, Protein deacetylase HDAC6 (Homo sapiens, UniProt Q9UBN7); assay: Inhibition of human recombinant HDAC6 assessed as fluorescence using fluorogenic substrate ZMAL incubated for 90 min by microplate reader
T1 sequence (Q9UBN7 whole entry): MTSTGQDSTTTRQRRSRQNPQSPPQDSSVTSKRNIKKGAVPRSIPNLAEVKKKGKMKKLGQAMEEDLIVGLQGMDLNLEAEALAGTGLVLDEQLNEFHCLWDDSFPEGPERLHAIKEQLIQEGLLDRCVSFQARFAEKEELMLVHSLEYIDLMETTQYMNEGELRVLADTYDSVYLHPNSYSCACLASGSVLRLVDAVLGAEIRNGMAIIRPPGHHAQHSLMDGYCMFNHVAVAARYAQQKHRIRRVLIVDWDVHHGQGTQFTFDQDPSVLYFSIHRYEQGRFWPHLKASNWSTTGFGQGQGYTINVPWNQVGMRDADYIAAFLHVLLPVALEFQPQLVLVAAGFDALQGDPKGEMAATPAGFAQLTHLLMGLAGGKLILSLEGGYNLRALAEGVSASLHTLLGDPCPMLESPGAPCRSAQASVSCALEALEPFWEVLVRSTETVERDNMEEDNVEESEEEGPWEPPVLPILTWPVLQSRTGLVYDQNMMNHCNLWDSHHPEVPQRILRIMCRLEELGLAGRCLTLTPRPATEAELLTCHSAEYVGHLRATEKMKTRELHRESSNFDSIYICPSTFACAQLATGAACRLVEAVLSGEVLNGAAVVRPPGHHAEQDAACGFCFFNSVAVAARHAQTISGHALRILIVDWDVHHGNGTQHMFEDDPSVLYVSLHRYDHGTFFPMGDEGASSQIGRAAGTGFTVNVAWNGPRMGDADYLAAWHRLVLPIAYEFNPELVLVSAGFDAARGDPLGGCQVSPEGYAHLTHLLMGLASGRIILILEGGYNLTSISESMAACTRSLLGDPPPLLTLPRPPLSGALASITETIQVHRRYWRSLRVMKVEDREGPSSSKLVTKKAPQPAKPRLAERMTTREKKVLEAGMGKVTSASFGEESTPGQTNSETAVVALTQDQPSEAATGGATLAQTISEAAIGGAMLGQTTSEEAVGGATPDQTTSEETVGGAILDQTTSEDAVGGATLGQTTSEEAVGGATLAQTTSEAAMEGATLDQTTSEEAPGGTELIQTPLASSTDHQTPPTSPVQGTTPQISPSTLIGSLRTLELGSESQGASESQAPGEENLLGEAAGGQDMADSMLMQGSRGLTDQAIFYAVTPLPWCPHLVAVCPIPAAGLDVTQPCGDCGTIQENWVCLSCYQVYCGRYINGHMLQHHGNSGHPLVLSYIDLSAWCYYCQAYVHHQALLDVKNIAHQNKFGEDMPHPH

[8] = tested on: HPBALL; assay: Anticancer activity against human HPBALL cells assessed as cell growth inhibition by CellTiter-Glo luminescent assay; format: functional, cell-based
[9] = tested on: K562; assay: Induction of apoptosis in human K562 cells assessed as increase cleaved PARP expression measured after 24 to 72 hrs by Western blot analysis; format: functional, cell-based; conditions: time 24-72 hrs
[10] = tested on: TALL-1; assay: Anticancer activity against human TALL-1 cells assessed as cell growth inhibition by CellTiter-Glo luminescent assay; format: functional, cell-based
[11] = tested on: HAL-01; assay: Anticancer activity against human HAL-01 cells assessed as cell growth inhibition by CellTiter-Glo luminescent assay; format: functional, cell-based
[12] = tested on: REH; assay: Anticancer activity against human REH cells assessed as cell growth inhibition by CellTiter-Glo luminescent assay; format: functional, cell-based
[13] = tested on: HL-60; assay: Anticancer activity against human HL-60 cells assessed as cell growth inhibition by CellTiter-Glo luminescent assay; format: functional, cell-based
[14] = tested on: K562; assay: Anticancer activity against human K562 cells assessed as cell growth inhibition by CellTiter-Glo luminescent assay; format: functional, cell-based
[15] = tested on: K562; assay: Induction of apoptosis in human K562 cells assessed as apoptosis at 6 uM after 24 to 72 hrs using annexin V/PI followed by flow cytometry; format: functional, cell-based; conditions: time 24-72 hrs
[16] = target: Bromodomain-containing protein 4 (Homo sapiens, UniProt O60885); assay: Binding affinity to human BRD4 domain 1 (unknown origin) assessed as dissociation constant by isothermal titration calorimetry assay
[17] = target: T2, Bromodomain-containing protein 2 (Homo sapiens, UniProt P25440); assay: Binding affinity to human BRD2 domain 1 assessed as dissociation constant by isothermal titration calorimetry assay
T2 sequence (P25440 whole entry, the tested form may be a part): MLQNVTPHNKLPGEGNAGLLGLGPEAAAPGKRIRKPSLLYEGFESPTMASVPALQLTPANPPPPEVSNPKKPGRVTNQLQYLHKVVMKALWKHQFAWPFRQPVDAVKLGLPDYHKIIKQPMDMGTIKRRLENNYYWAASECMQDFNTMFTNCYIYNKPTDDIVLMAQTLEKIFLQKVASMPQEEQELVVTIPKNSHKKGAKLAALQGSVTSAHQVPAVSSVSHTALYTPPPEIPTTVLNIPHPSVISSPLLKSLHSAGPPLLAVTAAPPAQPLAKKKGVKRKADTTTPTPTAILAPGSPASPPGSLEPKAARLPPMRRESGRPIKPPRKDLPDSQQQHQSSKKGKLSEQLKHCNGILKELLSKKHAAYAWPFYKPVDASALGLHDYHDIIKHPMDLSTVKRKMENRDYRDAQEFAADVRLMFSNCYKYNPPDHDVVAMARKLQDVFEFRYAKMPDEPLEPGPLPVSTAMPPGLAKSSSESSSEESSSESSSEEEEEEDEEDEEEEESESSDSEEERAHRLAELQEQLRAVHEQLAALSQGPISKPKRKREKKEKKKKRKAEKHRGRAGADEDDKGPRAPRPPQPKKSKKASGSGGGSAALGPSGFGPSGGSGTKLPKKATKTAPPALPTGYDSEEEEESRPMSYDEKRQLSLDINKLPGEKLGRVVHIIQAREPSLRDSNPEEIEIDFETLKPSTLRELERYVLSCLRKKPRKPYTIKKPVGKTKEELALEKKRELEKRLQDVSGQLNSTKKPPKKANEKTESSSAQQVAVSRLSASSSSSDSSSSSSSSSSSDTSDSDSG

[18] = target: T2, Bromodomain-containing protein 2; assay: Binding affinity to human BRD2 domain 2 assessed as dissociation constant by isothermal titration calorimetry assay
[19] = target: T3, Histone deacetylase (Homo sapiens) (UniProt Q13547+O15379+Q9UBN7+Q92769+Q9UQL6+Q8WUI4+Q9BY41+Q96DB2+P56524+Q9UKV0+Q969S8); assay: Inhibition of HDAC in human K562 cells assessed as increase in acetylated histone H3 measured after 48 hrs by Western blot analysis; format: cell-based
[20] = target: T3, Histone deacetylase (Homo sapiens); assay: Inhibition of HDAC in human K562 cells assessed as decrease in MYC expression measured after 24 to 72 hrs by Western blot analysis; format: cell-based; conditions: time 24-72 hrs
[21] = target: Histone deacetylase 3 (Homo sapiens, UniProt O15379); assay: Inhibition of human HDAC3 assessed as target activity using fluorogenic substrate ZMAL for 90 min by microplate reader at 355nm
Sequence of Histone deacetylase 3 (O15379 whole entry): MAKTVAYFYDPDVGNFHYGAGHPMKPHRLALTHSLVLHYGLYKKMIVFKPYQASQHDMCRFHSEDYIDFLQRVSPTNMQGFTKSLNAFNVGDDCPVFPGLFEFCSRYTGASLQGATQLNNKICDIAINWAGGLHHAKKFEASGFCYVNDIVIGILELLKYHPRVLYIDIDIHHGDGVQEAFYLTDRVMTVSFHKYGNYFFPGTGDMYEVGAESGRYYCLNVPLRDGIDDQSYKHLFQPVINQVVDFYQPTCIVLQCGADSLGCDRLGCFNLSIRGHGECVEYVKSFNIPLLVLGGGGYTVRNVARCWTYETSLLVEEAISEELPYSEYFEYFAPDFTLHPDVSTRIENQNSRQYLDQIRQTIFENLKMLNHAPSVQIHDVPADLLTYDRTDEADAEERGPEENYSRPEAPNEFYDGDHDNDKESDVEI

[22] = target: T4, Bromodomain-containing protein 7 (Homo sapiens, UniProt Q9NPI1); assay: Binding affinity to human BRD7 assessed as dissociation constant by isothermal titration calorimetry assay
T4 sequence (Q9NPI1 whole entry): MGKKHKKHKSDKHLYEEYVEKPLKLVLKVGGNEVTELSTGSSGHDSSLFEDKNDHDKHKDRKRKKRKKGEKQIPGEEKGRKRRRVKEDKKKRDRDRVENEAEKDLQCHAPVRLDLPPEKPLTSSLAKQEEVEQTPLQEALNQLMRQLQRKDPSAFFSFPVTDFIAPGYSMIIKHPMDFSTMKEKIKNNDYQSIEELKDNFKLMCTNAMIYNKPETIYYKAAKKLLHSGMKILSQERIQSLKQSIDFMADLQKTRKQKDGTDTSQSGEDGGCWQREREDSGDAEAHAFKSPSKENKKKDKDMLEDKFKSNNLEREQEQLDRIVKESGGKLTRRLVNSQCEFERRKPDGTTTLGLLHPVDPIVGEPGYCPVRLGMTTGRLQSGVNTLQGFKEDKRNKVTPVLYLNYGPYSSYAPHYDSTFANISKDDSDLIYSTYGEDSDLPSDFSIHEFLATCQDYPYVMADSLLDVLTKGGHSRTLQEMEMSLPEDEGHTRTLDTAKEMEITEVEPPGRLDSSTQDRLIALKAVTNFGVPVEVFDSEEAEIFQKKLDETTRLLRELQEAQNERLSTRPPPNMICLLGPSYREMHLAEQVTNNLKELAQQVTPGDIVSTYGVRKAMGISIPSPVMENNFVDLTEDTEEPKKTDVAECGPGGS

[23] = target: Histone deacetylase 2 (Homo sapiens, UniProt Q92769); assay: Inhibition of human HDAC2 assessed as target activity using fluorogenic substrate ZMAL for 90 min by microplate reader at 355nm
Sequence of Histone deacetylase 2 (Q92769 whole entry, the tested form may be a part): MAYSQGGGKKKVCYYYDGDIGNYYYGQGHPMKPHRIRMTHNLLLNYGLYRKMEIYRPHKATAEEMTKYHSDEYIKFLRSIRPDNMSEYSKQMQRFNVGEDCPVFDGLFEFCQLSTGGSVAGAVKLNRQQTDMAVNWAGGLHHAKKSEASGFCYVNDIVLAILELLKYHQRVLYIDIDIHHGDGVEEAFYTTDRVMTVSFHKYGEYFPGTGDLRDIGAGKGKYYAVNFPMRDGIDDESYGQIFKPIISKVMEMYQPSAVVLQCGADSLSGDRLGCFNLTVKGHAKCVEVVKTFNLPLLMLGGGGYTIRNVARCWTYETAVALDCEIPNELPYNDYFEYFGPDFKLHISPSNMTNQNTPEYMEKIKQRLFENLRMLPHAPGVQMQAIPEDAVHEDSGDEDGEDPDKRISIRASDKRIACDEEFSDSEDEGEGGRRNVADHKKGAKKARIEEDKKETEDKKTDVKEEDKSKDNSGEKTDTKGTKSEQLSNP

[24] = target: T5, Bromodomain-containing protein 3 (Homo sapiens, UniProt Q15059); assay: Binding affinity to human BRD3 domain 2 assessed as dissociation constant by isothermal titration calorimetry assay
T5 sequence (Q15059 whole entry, the tested form may be a part): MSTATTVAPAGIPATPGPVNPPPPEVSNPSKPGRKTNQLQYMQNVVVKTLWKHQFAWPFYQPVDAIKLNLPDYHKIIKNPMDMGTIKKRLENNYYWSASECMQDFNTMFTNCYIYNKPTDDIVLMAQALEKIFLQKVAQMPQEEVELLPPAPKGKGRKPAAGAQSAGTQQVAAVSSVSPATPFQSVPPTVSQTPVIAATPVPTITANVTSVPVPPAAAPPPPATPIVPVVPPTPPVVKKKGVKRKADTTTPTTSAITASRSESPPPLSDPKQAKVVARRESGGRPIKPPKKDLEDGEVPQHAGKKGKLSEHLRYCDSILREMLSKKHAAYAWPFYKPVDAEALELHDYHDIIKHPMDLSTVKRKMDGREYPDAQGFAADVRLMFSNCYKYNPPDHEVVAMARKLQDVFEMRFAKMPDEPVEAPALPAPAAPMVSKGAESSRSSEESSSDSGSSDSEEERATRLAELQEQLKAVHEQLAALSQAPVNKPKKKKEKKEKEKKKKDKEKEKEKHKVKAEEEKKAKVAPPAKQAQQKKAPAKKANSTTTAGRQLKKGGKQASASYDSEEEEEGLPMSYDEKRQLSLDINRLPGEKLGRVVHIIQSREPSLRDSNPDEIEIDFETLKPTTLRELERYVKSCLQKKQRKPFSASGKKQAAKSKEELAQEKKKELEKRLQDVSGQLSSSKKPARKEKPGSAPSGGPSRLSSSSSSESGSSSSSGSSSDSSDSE

[25] = target: T5, Bromodomain-containing protein 3; assay: Binding affinity to human BRD3 domain 1 assessed as dissociation constant by isothermal titration calorimetry assay
[26] = target: T3, Histone deacetylase (Homo sapiens); assay: Inhibition of HDAC in human K562 cells assessed as increase in acetylated alpha-tubulin measured after 48 hrs by Western blot analysis; format: cell-based

| IC50 [3] | IC50 [7] | Kd ([16]; read-out: Kd) | Structure (SMILES) | viability at 5 µM [1] | viability at 5 µM [2] | viability at 5 µM [6] | also measured |
| --- | --- | --- | --- | --- | --- | --- | --- |
| 330 nM | 320 nM |  | Cc1c2c(c(C(=O)Nc3cc(S(=O)(=O)N4CCOCC4)ccc3OCCCCCCCC(=O)NO)n1C)CCCCC2=O | 82.3% | 115% | 80.8% | Activity [4]: Active; Activity [5]: Active |
| 900 nM | 658 nM | 11500 nM | CCc1c(C(=O)Nc2cccc(CCC(=O)NO)c2)[nH]c(C)c1C(C)=O |  |  |  |  |
| 142 nM | 80 nM | 2660 nM | CCc1c(C(=O)Nc2cc(/C=C/C(=O)NO)ccc2O)[nH]c(C)c1C(C)=O | 87.6% | 105% | 88.2% |  |
| 1280 nM | 620 nM |  | Cn1cccc1C(=O)Nc1cccc(CCC(=O)NO)c1 |  |  |  | Kd [16]: Not Active |
| > 33300 nM | > 33300 nM | 8260 nM | CCc1c(C(=O)Nc2cccc(CCC(=O)OC)c2)[nH]c(C)c1C(C)=O |  |  |  |  |

More lines, now with the values behind:

| Structure (SMILES) | IC50 [3] | IC50 [7] | Kd ([16]; read-out: Kd) | viability at 5 µM [1] | viability at 5 µM [2] | viability at 5 µM [6] | also measured |
| --- | --- | --- | --- | --- | --- | --- | --- |
| O=C(CCCCCCNC(=O)c1cnc(N(c2ccccc2)c2ccccc2)nc1)NO [RICOLINOSTAT] |  |  |  |  |  |  | IC50 [8]: 6700 nM; Activity [9]: Active; IC50 [10]: 3880 nM; IC50 [11]: > 25000 nM; IC50 [12]: > 25000 nM; IC50 [13]: 10400 nM; IC50 [14]: 6020 nM; Activity [15]: Active |
| CCc1c(C(=O)Nc2cccc(/C=C/C(=O)NO)c2)[nH]c(C)c1C(C)=O | 125 nM | 45 nM | 4500 nM |  |  |  | Kd [17]: 7700 nM; Kd [18]: > 10000 nM; IC50 [8]: > 25000 nM; Activity [19]: Active; IC50 [10]: 5160 nM; Activity [20]: Active; IC50 [21]: 149 nM; Kd [22]: > 10000 nM; IC50 [11]: > 25000 nM; IC50 [23]: 168 nM; IC50 [12]: > 25000 nM; Kd [24]: > 10000 nM; IC50 [13]: > 25000 nM; Kd [25]: > 10000 nM; IC50 [14]: 7380 nM; inhibition [26]: Active |
| COC(=O)CCCCCCCOc1ccc(S(=O)(=O)N2CCOCC2)cc1NC(=O)c1c2c(c(C)n1C)C(=O)CCCC2 | > 10000 nM | > 10000 nM | 34 nM | 70.3% | 68.6% | 104% |  |
| Cc1sc2c(c1C)C(c1ccc(Cl)cc1)=N[C@@H](CC(=O)Nc1ccc(O)cc1)c1nnc(C)n1-2 [BIRABRESIB] |  |  |  |  |  |  | IC50 [8]: 7010 nM; IC50 [10]: 1350 nM; IC50 [11]: 2530 nM; IC50 [12]: 15300 nM; IC50 [13]: 820 nM; IC50 [14]: 2840 nM |
| CCc1c(C(=O)Nc2cc(S(=O)(=O)Nc3cccc(/C=C/C(=O)NO)c3)ccc2OC)[nH]c(C)c1C(C)=O | 97 nM | 73 nM | 3670 nM | 85.6% | 106% | 98.7% |  |
| CCc1c(C(=O)Nc2cc(S(=O)(=O)N(CC)CC)ccc2O)[nH]c(C)c1C(C)=O |  |  |  |  |  |  | Kd [17]: 170 nM; Kd [18]: 830 nM; Kd [24]: 490 nM; Kd [25]: 380 nM |
| CCc1c(C(=O)Nc2cccc(CCC(=O)Nc3ccccc3N)c2)[nH]c(C)c1C(C)=O | 28200 nM | > 100000 nM | 6920 nM |  |  |  |  |
